The data set in a line: in vitro. The conditions noted are these: human, hela cells, % viability.

As a reminder, the viability is a read-out of living cells in per cent, often relative to untreated cells. Consider `CNC(=O)C1(Cc2ccc(-c3cccc(C)c3)cc2)CCN(C(=O)C(C)(C)C)CC1` [CBK285755], for which the viability at 28.5 h, 10 µM was 98.6%.

Take `Cc1cccc(-c2ccc(CC3(C(=O)NC(C)C)CCN(C(=O)C(C)C)CC3)cc2)c1` [CBK285756]: the viability at 28.5 h, 10 µM stood at 99.8%.

Turning to `COCC(=O)N1CCC(Cc2ccc(-c3cccc(C)c3)cc2)(C(=O)NC(C)C)CC1` [CBK285759], the viability at 28.5 h, 10 µM was 93.6%.

For `CCCC(=O)N1CCC(Cc2ccc(-c3cccc(C)c3)cc2)(C(=O)NC(C)C)CC1` [CBK285760], the viability at 28.5 h, 10 µM worked out at 93.9%.

`CNC(=O)C1(Cc2ccc(-c3ccccc3)cc2)CCN(C(=O)c2ccccc2)CC1` [CBK285761]: the viability at 28.5 h, 10 µM turned out to be 96.5%.

As for `CNC(=O)C1(Cc2ccc(-c3ccccc3)cc2)CCN(C(=O)C2CCCCC2)CC1` [CBK285762], the viability at 28.5 h, 10 µM came out at 113%.

Take `CNC(=O)C1(Cc2ccc(-c3ccccc3)cc2)CCN(C(=O)c2ccccc2OC)CC1` [CBK285767]: the viability at 28.5 h, 10 µM worked out at 85.9%.

For `CNC(=O)C1(Cc2ccc(-c3ccccc3)cc2)CCN(C(=O)Cc2ccc(C)cc2)CC1` [CBK285769], the viability at 28.5 h, 10 µM stood at 90.4%.

Regarding `NC(=O)C1(Cc2ccc(-c3ccccc3)cc2)CCN(C(=O)CCc2ccccc2)CC1` [CBK285772], the viability at 28.5 h, 10 µM was found to be 102%.

Turning to `NC(=O)C1(Cc2ccc(-c3ccccc3)cc2)CCN(C(=O)COc2ccccc2)CC1` [CBK285773], the viability at 28.5 h, 10 µM is 95.9%.

`COc1ccccc1C(=O)N1CCC(Cc2ccc(-c3ccccc3)cc2)(C(N)=O)CC1` [CBK285774]: the viability at 28.5 h, 10 µM was 100%.

Take `CCOc1ccccc1C(=O)N1CCC(Cc2ccc(-c3ccccc3)cc2)(C(N)=O)CC1` [CBK285775]: the viability at 28.5 h, 10 µM was found to be 97%.

As for `COc1cccc(CC(=O)N2CCC(Cc3ccc(-c4ccccc4)cc3)(C(N)=O)CC2)c1` [CBK285776], the viability at 28.5 h, 10 µM was found to be 94.2%.

For the compound `COc1ccccc1CC(=O)N1CCC(Cc2ccc(-c3ccccc3)cc2)(C(N)=O)CC1` [CBK285777], the viability at 28.5 h, 10 µM was found to be 95.4%.

For the compound `COc1cccc(C(=O)N2CCC(Cc3cccc(-c4cccs4)c3)(C(N)=O)CC2)c1` [CBK285781], the viability at 28.5 h, 10 µM came to 97.8%.

Consider `NC(=O)C1(Cc2cccc(-c3cccs3)c2)CCN(C(=O)Cc2cccc(F)c2)CC1` [CBK285783], for which the viability at 28.5 h, 10 µM came out at 98%.

In the case of `CN(C)C(=O)C1(Cc2ccc(-c3cccs3)cc2)CCN(C(=O)Cc2ccccc2)CC1` [CBK285784], the viability at 28.5 h, 10 µM was 93.2%.

`CCNC(=O)C1(Cc2ccc(-c3ccncc3)cc2)CCN(C(=O)CC2CCCCC2)CC1` [CBK285785]: the viability at 28.5 h, 10 µM was determined as 89.8%.

As for `CCCC(=O)N1CCC(Cc2ccc(-c3cccc(C)c3)cc2)(C(=O)NC)CC1` [CBK285786], the viability at 28.5 h, 10 µM turned out to be 104%.

Take `CNC(=O)C1(Cc2ccc(-c3cccc(C)c3)cc2)CCN(C(=O)CC(C)C)CC1` [CBK285787]: the viability at 28.5 h, 10 µM turned out to be 116%.

Take `NC(=O)C1(Cc2ccc(-c3ccccc3)cc2)CCN(C(=O)c2ccccc2)CC1` [CBK285789]: the viability at 28.5 h, 10 µM turned out to be 95.1%.

On to `COc1ccccc1C(=O)N1CCC(Cc2ccc(-c3cccc(C)c3)cc2)(C(N)=O)CC1` [CBK285792], for which the viability at 28.5 h, 10 µM came out at 89.8%.

Turning to `CNC(=O)C1(Cc2ccc(-c3cccs3)cc2)CCN(C(=O)C2CCCCC2)CC1` [CBK285793], the viability at 28.5 h, 10 µM came to 88%.

On to `CCNC(=O)C1(Cc2ccc(-c3cccs3)cc2)CCN(C(=O)c2ccccc2)CC1` [CBK285794], for which the viability at 28.5 h, 10 µM stood at 94.5%.

For the compound `Cc1cccc(-c2ccc(CC3(C(N)=O)CCN(C(=O)CCc4ccccc4)CC3)cc2)c1` [CBK285796], the viability at 28.5 h, 10 µM came out at 110%.

Regarding `Cc1cccc(-c2ccc(CC3(C(N)=O)CCN(C(=O)COc4ccccc4)CC3)cc2)c1` [CBK285797], the viability at 28.5 h, 10 µM stood at 93.6%.

`Cc1[nH]c2cccc(C(=O)N3CCOC(C)(C(=O)NC4CCCC4)C3)c2c1C` (stereo not drawn) [CBK285800]: the viability at 28.5 h, 10 µM amounted to 87.3%.

As for `Cc1ccc2[nH]c(Cc3ccc(NC(=O)CCc4nc5ccccc5[nH]4)cc3)nc2c1` [CBK285801], the viability at 28.5 h, 10 µM came to 87%.

Consider `Cc1ccc2[nH]c(Cc3ccc(NC(=O)c4nc5ccccc5n(C)c4=O)cc3)nc2c1` [CBK285802], for which the viability at 28.5 h, 10 µM is 83.8%.

On to `COc1ccc(OC)c(C(=O)N2CCNC(=O)C2Cc2ccc(-c3cccs3)cc2)c1` (stereo not drawn) [CBK285803], for which the viability at 28.5 h, 10 µM was found to be 111%.

As for `CCN1CCN(C(=O)Cc2ccc(OC)cc2)C(Cc2ccc(-c3ccncc3)cc2)C1=O` (stereo not drawn) [CBK285804], the viability at 28.5 h, 10 µM stood at 106%.

Take `Cc1c(C(=O)NCCOc2ccc(-c3ccccc3)cc2)sc2nc[nH]c(=O)c12` [CBK285805]: the viability at 28.5 h, 10 µM was determined as 92.2%.

With `O=C1NC(=O)C(CCC(=O)N2CCN(c3nc4ccccc4s3)CC2)C(=O)N1` [CBK285807], where the note is “bulk resorufin, single well”, the viability at 28.5 h, 10 µM amounted to 86.6%.

With `O=C1NCCN(C(=O)c2cccc3cccnc23)C1Cc1ccc(-c2cccs2)cc1` (stereo not drawn) [CBK285809], the viability at 28.5 h, 10 µM worked out at 81.4%.

With `Cn1nc(C(C)(C)C)cc1C(=O)N1CCNC(=O)C1Cc1ccc(-c2cccs2)cc1` (stereo not drawn) [CBK285810], the viability at 28.5 h, 10 µM amounted to 92.2%.

Take `CCN1CCN(C(=O)c2cccc(N(C)C)c2)C(Cc2ccc(-c3ccncc3)cc2)C1=O` (stereo not drawn) [CBK285813]: the viability at 28.5 h, 10 µM worked out at 101%.

For `O=C(Nc1ccc(OCc2ccccc2F)cc1)c1ccc(-n2cnnc2)cc1` [CBK285816], the viability at 28.5 h, 10 µM is 81.4%.

For `COc1ccc(-c2ccc(OC)cc2C(=O)Nc2cccc(-n3cccn3)c2)cc1` [CBK285818], the viability at 28.5 h, 10 µM is 94.6%.

As to `Cc1ccc(CN2CCC(N3C(=O)NC4(CCN(CC(C)C)CC4)C3=O)CC2)cc1C` [CBK285822], the viability at 28.5 h, 10 µM was 96.9%.

In the case of `O=C(Nc1cccc(-c2nc3ccccc3s2)c1)c1ccc(Cn2cnnn2)cc1` [CBK285823], the viability at 28.5 h, 10 µM stood at 85.2%.

For `COc1ccc(CC(=O)N2CCNC(=O)C2Cc2ccccc2-c2ccccc2)cc1OC` (stereo not drawn) [CBK285827], the viability at 28.5 h, 10 µM stood at 102%.

As to `O=C1NCCN(C(=O)c2[nH]nc3c2CCCCC3)C1Cc1ccccc1-c1ccc(F)cc1` (stereo not drawn) [CBK285831], the viability at 28.5 h, 10 µM amounted to 98.1%.

Regarding `CC(C)c1cc(C(=O)N2CCN(C)C(=O)C2Cc2ccccc2-c2ccc(F)cc2)[nH]n1` (stereo not drawn) [CBK285833], the viability at 28.5 h, 10 µM is 92.1%.

For the compound `Cc1c(C(=O)Nc2ccc(OCc3ccccc3F)cc2)sc2nc[nH]c(=O)c12` [CBK285834], the viability at 28.5 h, 10 µM came to 98.5%.

As for `CNc1nc(C2CCN(C(=O)c3ccc(N4CCC(C)CC4)cc3)C2)nc2c1CCN(C)C2` (stereo not drawn) [CBK285835], the viability at 28.5 h, 10 µM turned out to be 106%.

With `CCCN1CCN(C(=O)c2ccc(=O)n(C)c2)C(Cc2ccccc2-c2ccccc2)C1=O` (stereo not drawn) [CBK285836], the viability at 28.5 h, 10 µM turned out to be 108%.

For the compound `CC(=O)Nc1ccc(C(=O)N2CCNC(=O)C2Cc2ccccc2-c2cccc(C)c2)cc1` (stereo not drawn) [CBK285837], the viability at 28.5 h, 10 µM was found to be 106%.

Consider `Cc1ccc2[nH]c(-c3cccc(NC(=O)c4cccc(CN5CCCC5=O)c4)c3)nc2c1` [CBK285838], for which the viability at 28.5 h, 10 µM was 85.8%.

In the case of `CCOc1ccccc1C(=O)N1CCCCC1c1ncc(C(=O)Nc2ccccc2)c(C)n1` (stereo not drawn) [CBK285840], the viability at 28.5 h, 10 µM was determined as 103%.

Turning to `CCOc1ccccc1-c1ccccc1NC(=O)c1cc(=O)n(C)c2ccccc12` [CBK285843], the viability at 28.5 h, 10 µM amounted to 100%.

Take `O=C(CCC1C(=O)NC(=O)NC1=O)Nc1cccc(-c2nc3ccccc3s2)c1` [CBK285844]: the viability at 28.5 h, 10 µM (bulk resorufin, single well) amounted to 105%.
